Common to all, as to assay: growth of human tumour cells (NCI), 48 h
The subject of experiment [1] is ACHN renal.
Experiment [2] concerns RPMI-8226 leukemia.
Experiment [3] has as its system MALME-3M melanoma.
Experiment [4] has as its system SW-620 colon.
The test system of experiment [5] is CCRF-CEM leukemia.
In experiment [6] the test system is KM12 colon.
Experiment [7] has as its system NCI/ADR-RES ovarian.
The test system of experiment [8] is PC-3 prostate.
Experiment [9] relates to NCI-H226 lung.
Experiment [10] relates to BT-549 breast.

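A five-concentration, 48-hour dose response in 96-well plates underlies each endpoint, interpolated linearly between surrounding concentrations. GI50: concentration for 50% inhibition of growth. TGI: concentration producing complete growth inhibition.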

Take `CCN(CCO)CC(C)Nc1ccc([N+](=O)[O-])c2sc3ccccc3c(=O)c12` (stereo not given): the GI50 is 1010 nM in [1]; 1260 nM in [2]; 421 nM in [3]; 1040 nM in [4]; 1000 nM in [5]; 1470 nM in experiment [6]. Also, the GI50 in [7] was 1600 nM; in experiment [8] it was 1330 nM; in experiment [9], 1370 nM; in experiment [10] it was 2100 nM. For the same compound, the TGI in [1] came to 12100 nM; in experiment [2], 4000 nM; in [3], 2130 nM; in experiment [4], 3190 nM; in experiment [5] it was 7190 nM; in experiment [6] it was 4000 nM. The TGI in [7] was 5860 nM; in experiment [8], 4550 nM; in [9], 7150 nM; in experiment [10] it was 13100 nM.

As for `COc1ccc(C2[C@@H](Cl)C(=O)N2c2cc(OC)c(OC)c(OC)c2)cc1Cl` (stereo not given in full), the GI50 in [1] was 79.8 nM; in experiment [2], 279 nM; in [3] it was 20700 nM; in [4], 132 nM; in [5], 190 nM; in experiment [6], 178 nM. The GI50 in [7] is 69.2 nM; in experiment [8], 64.2 nM; in experiment [9], 239 nM; in experiment [10], 102 nM. Moreover, the TGI in [1] turned out to be 49100 nM; in experiment [2], 3470 nM; in experiment [3], 72400 nM; in experiment [4] it was 65000 nM; in experiment [5], 39400 nM; in experiment [6], 18500 nM. Besides, the TGI is over 100000 nM in [7], over 100000 nM in [8], 34000 nM in experiment [9] and 610 nM in experiment [10].

On to `COc1ccc(C(=O)N2c3ccccc3Sc3ccccc32)c(OC)c1`, for which the GI50 in experiment [1] is 726 nM; in [2], 523 nM; in experiment [3], 416 nM; in [4], 412 nM; in [5] it was 394 nM; in [6], 438 nM. The GI50 in experiment [7] is 400 nM; in experiment [8] it was 430 nM; in [9] it was 843 nM; in [10], 659 nM. For the same compound, the TGI in experiment [1] is over 100000 nM; in experiment [2], 29900 nM; in [3] it was over 100000 nM; in experiment [4] it was over 100000 nM; in experiment [5], over 100000 nM; in [6] it was over 100000 nM. Further, the TGI in [7] was 42100 nM; in experiment [8] it was over 100000 nM; in [9] it was over 100000 nM; in experiment [10], over 100000 nM.

For the compound `Cc1cc(N(CCC#N)CCC#N)ccc1/C=C1N=C(/C=C\c2ccccc2)N(c2ccc(Cl)cc2)C\1=O`, the TGI is over 100000 nM in [1]; over 100000 nM in experiment [2]; over 72000 nM in [3]; over 100000 nM in experiment [4]; over 100000 nM in [5]; over 100000 nM in [6]. The TGI in experiment [7], in experiment [8], in experiment [9] and in [10] was over 100000 nM each time.

Turning to `N#CN1CC[C@H](C(=O)Nc2ncc(-c3ccncc3)s2)C1`, the GI50 in experiment [1] was 34.8 nM; in [2], under 20.1 nM; in [3], under 12.9 nM; in [4], 23 nM; in [5] it was under 15.6 nM; in experiment [6] it was under 21.3 nM. The GI50 was under 24.2 nM in [7], 58.2 nM in experiment [8], 151 nM in [9] and under 11.6 nM in [10]. For the same compound, the TGI in experiment [1] was over 100000 nM; in [2], 1270 nM; in experiment [3] it was 69.4 nM; in experiment [4], 19500 nM; in experiment [5] it was over 100000 nM; in experiment [6], 3440 nM. Moreover, the TGI in experiment [7] is over 100000 nM; in experiment [8], 12700 nM; in experiment [9], 1500 nM; in [10] it was 188 nM.

`CCN1C(=O)N(CC)C2C1NN=c1s/c(=C\c3ccccc3Br)c(=O)n12` (stereo not given): the GI50 in experiment [1] is 43.7 nM; in experiment [2], 33.3 nM; in experiment [3], 1120 nM; in experiment [4], 37 nM; in experiment [5] it was 35.4 nM; in [6], 23.6 nM. Besides, the GI50 in experiment [7] was 22.8 nM; in [8] it was 38.3 nM; in experiment [9], 132 nM; in experiment [10], 32.7 nM. Also, the TGI in experiment [1] is over 61600 nM; in [2], 8760 nM; in [3], 33700 nM; in [4] it was over 54200 nM; in [5] it was over 100000 nM; in [6] it was 1500 nM. Also, the TGI came to 15300 nM in [7], 44500 nM in experiment [8], 4980 nM in [9] and 17100 nM in [10].

In the case of `CCCCn1c(=O)c2c(nc3n2CCCN3CCc2ccc(OCC(=O)NCCN(CC)CC)cc2)n(CCCC)c1=O`, the GI50 in experiment [1] is 2980 nM; in [2] it was 1130 nM; in [3], 922 nM; in experiment [4] it was 4860 nM; in experiment [5], 1130 nM; in [6] it was 6490 nM. For the same compound, the GI50 is 5420 nM in experiment [7], 1190 nM in experiment [8], 7130 nM in experiment [9] and 2550 nM in experiment [10]. Further, the TGI was 10600 nM in experiment [1]; 2900 nM in experiment [2]; 1980 nM in experiment [3]; 11200 nM in [4]; 3900 nM in [5]; 13500 nM in [6]. Further, the TGI in [7] is 27900 nM; in experiment [8] it was 5370 nM; in experiment [9], 16900 nM; in experiment [10] it was 8850 nM.

The record behind these values is PubChem BioAssay (NCI).
